Read-outs that look alike come from different tables or passages of the source. Values belong to the compound of their own block, whether it stands above or below them.
What was measured:
[1] = biological target: T1, CatG (Homo sapiens, UniProt P08311); assay: Direct inhibition of human CatG, chromogenic substrate hydrolysis assay; format: biochemical
T1 sequence (P08311 21-244): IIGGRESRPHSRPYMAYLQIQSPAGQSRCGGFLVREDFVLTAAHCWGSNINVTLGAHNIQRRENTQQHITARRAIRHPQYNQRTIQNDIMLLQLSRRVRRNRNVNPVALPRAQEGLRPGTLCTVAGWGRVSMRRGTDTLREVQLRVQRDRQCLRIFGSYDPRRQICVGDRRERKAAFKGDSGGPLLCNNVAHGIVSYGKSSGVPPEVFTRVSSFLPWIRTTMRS
Description: The method further comprises inhibition of proteases. […] To each well of a 96-well microplate containing 88 μl of 20 mM tris buffer containing 100 mM NaCl, 2.5 mM CaCl2, 0.1% PEG 8000 and 0.05% tween 80 was added 3 μl of CatG (final concentration of 30 nM), and 5 μl of H2O or potential inhibitor (final concentration of 0-100 μM). Following a 5-min incubation, 3 μl of CatG substrate was added (final concentration 750 μM) and the residual CatG activity was obtained from the initial rate of increase of absorbance at 405 nm. The relative residual activity of CatG at each of the inhibitor concentrations was obtained from the ratio of CatG activity in the presence and absence of the inhibitor. Logistic Equation (1) was used to plot the dose-dependence curve to obtain the IC50 (potency) and efficacy of CatG inhibition. Here, Y is the ratio of residual CatG activity in the presence of inhibitor to that in its absence, YO and YM are the minimum and maximum values of fractional residual CatG activity, respectively, IC50 is the concentration of the inhibitor that results in 50% inhibition of CatG activity and HS is the Hill slope.
To each well of a 96-well microplate containing 88 μl of 20 mM tris buffer containing 100 mM NaCl, 2.5 mM CaCl2, 0.1% PEG 8000 and 0.05% tween 80 was added 3 μl of CatG (final concentration of 30 nM), and 5 μl of H2O or potential inhibitor (final concentration of 0-100 μM). Following a 5-min incubation, 3 μl of CatG substrate was added (final concentration 750 μM) and the residual CatG activity was obtained from the initial rate of increase of absorbance at 405 nm. The relative residual activity of CatG at each of the inhibitor concentrations was obtained from the ratio of CatG activity in the presence and absence of the inhibitor. Logistic Equation (1) was used to plot the dose-dependence curve to obtain the IC50 (potency) and efficacy of CatG inhibition. Here, Y is the ratio of residual CatG activity in the presence of inhibitor to that in its absence, YO and YM are the minimum and maximum values of fractional residual CatG activity, respectively, IC50 is the concentration of the inhibitor that results in 50% inhibition of CatG activity and HS is the Hill slope.

[2] = biological target: T2, FXa (Homo sapiens, UniProt P00742); assay: Direct inhibition of FXa, chromogenic substrate hydrolysis assay; format: biochemical; conditions: Tris-HCl buffer
T2 construct: factor Xa (FXa), FXIa, factor XIIa (FXIIa), trypsin and chymotrypsin
Description: (§1) Direct inhibitions of thrombin (FIIa), factor VIIa (FVIIa), factor IXa (FIXa), factor Xa (FXa), FXIa, factor XIIa (FXIIa), trypsin and chymotrypsin were evaluated using the corresponding chromogenic substrate hydrolysis assays as previously reported. Briefly, to each well of a 96-well microplate containing 85-185 μl of […] Tris buffer containing 100 mM NaCl, 2.5 mM CaCl2, 0.1% PEG 8000, and 0.05% tween 80 at 25 (thrombin) or 37° C. (FVIIa, FIXa, FXa, FXIa, FXIIa, chymotrypsin, and trypsin) were added 5 μl of enzyme (thrombin, FVIIa, FIXa, FXa, FXIa, FXIIa, chymotrypsin, and trypsin) and 5 μl of the inhibitor. Following an incubation period of 5 min, the appropriate chromogenic substrates (Spectrozyme TH, Spectrozyme FIXa, Spectrozyme FXa, S-2366, Spectrozyme FXIIa and S-2222) were added and the residual enzyme activity was measured from the initial rate of increase in absorbance at 405 nm. Relative residual enzyme activity as a function of the inhibitor concentration was fitted using Logistic Equation (1) to obtain the IC50 (potency), A Y % (efficacy) of enzyme inhibition, and HS (Hill slope). […]

[3] = biological target: Human FXIa (Homo sapiens, UniProt P03951); assay: Direct inhibition of FXIa, chromogenic substrate hydrolysis assay; format: biochemical; conditions: Tris-HCl buffer
Description: Direct inhibitions of thrombin (FIIa), factor VIIa (FVIIa), factor IXa (FIXa), factor Xa (FXa), FXIa, factor XIIa (FXIIa), trypsin and chymotrypsin were evaluated using the corresponding chromogenic substrate hydrolysis assays as previously reported. Briefly, to each well of a 96-well microplate containing 85-185 μl of […] Tris buffer containing 100 mM NaCl, 2.5 mM CaCl2, 0.1% PEG 8000, and 0.05% tween 80 at 25 (thrombin) or 37° C. (FVIIa, FIXa, FXa, FXIa, FXIIa, chymotrypsin, and trypsin) were added 5 μl of enzyme (thrombin, FVIIa, FIXa, FXa, FXIa, FXIIa, chymotrypsin, and trypsin) and 5 μl of the inhibitor. Following an incubation period of 5 min, the appropriate chromogenic substrates (Spectrozyme TH, Spectrozyme FIXa, Spectrozyme FXa, S-2366, Spectrozyme FXIIa and S-2222) were added and the residual enzyme activity was measured from the initial rate of increase in absorbance at 405 nm. Relative residual enzyme activity as a function of the inhibitor concentration was fitted using Logistic Equation (1) to obtain the IC50 (potency), A Y % (efficacy) of enzyme inhibition, and HS (Hill slope). The concentrations of enzymes and substrates in microplate cells were: 6 nM and 50 μM for thrombin; 1.09 nM and 125 μM for FXa; 5 nM and 125 μM for FXIIa; 89 nM and 850 μM for FIXa; 8 nM and 1000 µM for FVIIa (along with 40 nM recombinant tissue factor); 72.5 ng/ml and 80 μM for bovine trypsin; and 500 ng/ml and 240 μM for bovine chymotrypsin.

[4] = biological target: Thrombin (human FIIa) (Homo sapiens, UniProt P00734); assay: Direct inhibition of thrombin, chromogenic substrate hydrolysis assay; format: biochemical; conditions: Tris-HCl buffer; estimated from the highest concentration used
Description: as §1

[5] = biological target: T1, CatG; conditions: reported; read-out: estimated Ki, allosteric inhibitor; cited from earlier work
[6] = Tris buffer pH 7.4, 37° C., 100 mM NaCl, read-out: IC50

Human FXIa, sequence (P03951 388-625): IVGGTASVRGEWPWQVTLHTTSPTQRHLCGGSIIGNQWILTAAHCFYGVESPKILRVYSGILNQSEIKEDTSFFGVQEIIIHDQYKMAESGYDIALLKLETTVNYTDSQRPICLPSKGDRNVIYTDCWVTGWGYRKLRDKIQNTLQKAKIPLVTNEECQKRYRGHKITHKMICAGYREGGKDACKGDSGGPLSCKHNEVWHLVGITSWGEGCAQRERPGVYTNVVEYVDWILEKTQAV
Human FXIa, sequence (P03951 19-387 partner): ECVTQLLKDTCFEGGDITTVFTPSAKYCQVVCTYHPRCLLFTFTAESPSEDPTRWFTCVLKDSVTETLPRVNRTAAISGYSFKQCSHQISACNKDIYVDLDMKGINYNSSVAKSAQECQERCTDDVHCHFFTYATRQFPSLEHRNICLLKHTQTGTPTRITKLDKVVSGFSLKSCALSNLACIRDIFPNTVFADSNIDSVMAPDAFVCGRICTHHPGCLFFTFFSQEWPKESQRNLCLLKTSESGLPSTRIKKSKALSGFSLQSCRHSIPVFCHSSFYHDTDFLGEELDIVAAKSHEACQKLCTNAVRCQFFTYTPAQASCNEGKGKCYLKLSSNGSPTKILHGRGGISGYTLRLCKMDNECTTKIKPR
T2 sequence (P00742 235-488): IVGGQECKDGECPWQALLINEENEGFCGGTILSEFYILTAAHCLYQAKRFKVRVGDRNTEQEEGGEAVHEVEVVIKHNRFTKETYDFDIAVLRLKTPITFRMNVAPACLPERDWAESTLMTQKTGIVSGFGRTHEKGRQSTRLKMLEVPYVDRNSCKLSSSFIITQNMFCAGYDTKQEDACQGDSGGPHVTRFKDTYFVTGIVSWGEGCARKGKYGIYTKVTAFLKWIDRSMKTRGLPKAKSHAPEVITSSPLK
T2 sequence (P00742 41-179 partner): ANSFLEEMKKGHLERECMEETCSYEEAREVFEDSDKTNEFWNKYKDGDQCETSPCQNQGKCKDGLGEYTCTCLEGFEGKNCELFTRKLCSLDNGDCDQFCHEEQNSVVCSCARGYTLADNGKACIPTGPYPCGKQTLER

IC50 ([1]; Table 6, read-out: CATG IC50): 1 to 5 µM
Compound: O=C(Nc1cc(C(=O)Nc2cc(S(=O)(=O)O)ccc2S(=O)(=O)O)cc(C(=O)Nc2cc(S(=O)(=O)O)ccc2S(=O)(=O)O)c1)Nc1cc(C(=O)Nc2cc(S(=O)(=O)O)ccc2S(=O)(=O)O)cc(C(=O)Nc2cc(S(=O)(=O)O)ccc2S(=O)(=O)O)c1 [2,2′,2″,2″′-((5,5′-(carbonylbis(azanediyl))bis(isophthaloyl))tetrakis(azanediyl))tetrakis(benzene-1,4-disulfonic acid)]

IC50 ([1]; Table 6, read-out: CATG IC50): 0.5 to 1 µM
Compound: O=C(Nc1cc(C(=O)Nc2ccc(S(=O)(=O)O)cc2)cc(C(=O)Nc2ccc(S(=O)(=O)O)cc2S(=O)(=O)O)c1)Nc1cc(C(=O)Nc2ccc(S(=O)(=O)O)cc2)cc(C(=O)Nc2ccc(S(=O)(=O)O)cc2S(=O)(=O)O)c1 [4,4′-((3,3′-(carbonylbis(azanediyl))bis(5-((4-sulfophenyl)carbamoyl)benzoyl))bis(azanediyl))bis(benzene-1,3-disulfonic acid)]

IC50 ([1]; Table 6, read-out: CATG IC50): 10 to 100 µM
Compound: Cc1ccc(C(=O)Nc2ccc(CP(=O)(O)O)cc2)cc1NC(=O)c1cccc(NC(=O)Nc2cccc(C(=O)Nc3cc(C(=O)Nc4ccc(CP(=O)(O)O)cc4)ccc3C)c2)c1 [((((3,3′-((3,3′-(carbonylbis(azanediyl))bis(benzoyl))bis(azanediyl))bis(4-methylbenzoyl))bis(azanediyl))bis(4,1-phenylene))bis(methylene))bis(phosphonic acid)]

IC50 ([1]; Table 6, read-out: CATG IC50): 10 to 100 µM
Compound: Cc1ccc(C(=O)Nc2ccc(CP(=O)(O)O)cc2CP(=O)(O)O)cc1NC(=O)Nc1cc(C(=O)Nc2ccc(CP(=O)(O)O)cc2CP(=O)(O)O)ccc1C [((((3,3′-(carbonylbis(azanediyl))bis(4-methylbenzoyl))bis(azanediyl))bis(4,1-phenylene))bis(methylene))bis(phosphonic acid)]

IC50 ([1]; Table 6, read-out: CATG IC50): 1 to 10 µM
Compound: O=C(Nc1cccc(C(=O)Nc2ccc(CP(=O)(O)O)cc2CP(=O)(O)O)c1)Nc1cccc(C(=O)Nc2ccc(CP(=O)(O)O)cc2CP(=O)(O)O)c1 [((((3,3′-(carbonylbis(azanediyl))bis(4-methylbenzoyl))bis(azanediyl))bis(benzene-4,1,3-triyl))tetrakis(methylene))tetrakis(phosphonic acid)]

IC50 [2]: > 100 µM
HS (Hill slope) [3]: 1.9 ± 0.5
ΔY (efficacy) [3]: 68.0 ± 3.7%
IC50 ([1]; Table 6, read-out: CATG IC50): 3.1 µM
HS (Hill slope) ([1]; Tris buffer pH 7.4, 37° C.): 1.1 ± 0.1
ΔY (efficacy) ([1]; Tris buffer pH 7.4, 37° C.): 87.5 ± 1.8%
IC50 [1, 6]: 3.1 µM
IC50 [4]: > 500 µM
Compound: Cc1ccc(C(=O)Nc2ccc(CP(=O)(O)O)cc2CP(=O)(O)O)cc1NC(=O)c1cccc(NC(=O)Nc2cccc(C(=O)Nc3cc(C(=O)Nc4ccc(CP(=O)(O)O)cc4CP(=O)(O)O)ccc3C)c2)c1 [Formula III, ((((3,3′-((3,3′-(carbonylbis(azanediyl))bis(benzoyl))bis(azanediyl))bis(4-methylbenzoyl))bis(azanediyl))bis(benzene-4,1,3-triyl))tetrakis(methylene))tetrakis(phosphonic acid)]

The next lines start with the compound.

Compound: O=C(Nc1cc(C(=O)Nc2ccccc2S(=O)(=O)O)cc(C(=O)Nc2ccccc2S(=O)(=O)O)c1)Nc1cc(C(=O)Nc2ccccc2S(=O)(=O)O)cc(C(=O)Nc2ccccc2S(=O)(=O)O)c1 [2,2′,2″,2″′-((5,5′-(carbonylbis(azanediyl))bis(isophthaloyl))tetrakis(azanediyl))tetrabenzenesulfonic acid]
IC50 ([1]; Table 6, read-out: CATG IC50): 1 to 5 µM

Compound: O=C(Nc1cccc(C(=O)Nc2cccc(C(=O)Nc3cccc(P(=O)(O)O)c3)c2)c1)Nc1cccc(C(=O)Nc2cccc(C(=O)Nc3cccc(P(=O)(O)O)c3)c2)c1 [(((3,3′-((3,3′-(carbonylbis(azanediyl))bis(benzoyl))bis(azanediyl))bis(benzoyl))bis(azanediyl))bis(3,1-phenylene))bis(phosphonic acid)]
IC50 ([1]; Table 6, read-out: CATG IC50): 1 to 10 µM

Compound: O=C(Nc1cc(C(=O)Nc2ccc(S(=O)(=O)O)cc2)cc(C(=O)Nc2ccc(S(=O)(=O)O)cc2)c1)Nc1cc(C(=O)Nc2ccc(S(=O)(=O)O)cc2)cc(C(=O)Nc2ccc(S(=O)(=O)O)cc2)c1 [Formula I, 4,4′,4″,4″-((5,5′-(carbonylbis(azanediyl))bis(isophthaloyl))tetrakis(azanediyl))tetrabenzenesulfonic acid]
IC50 [2]: > 100 µM
HS (Hill slope) [3]: 1.2 ± 0.2
IC50 [3]: 29.5 ± 4.6 µM
ΔY (efficacy) [3]: 90.9 ± 5.8%
IC50 ([1]; Table 6, read-out: CATG IC50): 0.83 µM
HS (Hill slope) ([1]; Tris buffer pH 7.4, 37° C.): 1.7 ± 0.4
ΔY (efficacy) ([1]; Tris buffer pH 7.4, 37° C.): 91.9 ± 6.8%
IC50 [1, 6]: 0.083 ± 0.14 µM
IC50 [4]: > 100 µM

Compound: heparin
Ki [5]: < 0.025 nM
